Results published in US20170253581A1, “SUBSTITUTED HETEROCYCLES AS c-MYC TARGETING AGENTS” (Northwestern University, priority 2016, published 2017).

Tests used:
[1] = system: wild type and Myc knockout rat fibroblasts; assay: Growth inhibition on wild type and Myc knockout rat fibroblasts; format: cell-based; details: FIG. 3
Source text: We tested the top 13 active compounds in the first screen assay. […] More than half of the tested compounds show better growth inhibitory effect on Myc WT compared to Myc KO cells.

Myc/Max binding to DNA = Myc/Max binding to DNA (Homo sapiens, UniProt P01106); assay: Electrophoretic mobility shift assay (EMSA) of Myc/Max binding to DNA; format: biochemical; details: EMSA; for remaining activity at 50 µM: read-out: Bound DNA (%) (50uM); for remaining activity at 100 µM / Bound DNA (%) (100uM): 100 uM test compound; for remaining activity at 100 µM: read-out: Bound DNA (%) (100uM)
Outline: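 Electrophoretic mobility shift assay of Myc/Max binding to DNA. Compounds tested at 200 μM, 100 μM and 50 μM.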

Chain of Myc/Max binding to DNA (P01106 whole entry): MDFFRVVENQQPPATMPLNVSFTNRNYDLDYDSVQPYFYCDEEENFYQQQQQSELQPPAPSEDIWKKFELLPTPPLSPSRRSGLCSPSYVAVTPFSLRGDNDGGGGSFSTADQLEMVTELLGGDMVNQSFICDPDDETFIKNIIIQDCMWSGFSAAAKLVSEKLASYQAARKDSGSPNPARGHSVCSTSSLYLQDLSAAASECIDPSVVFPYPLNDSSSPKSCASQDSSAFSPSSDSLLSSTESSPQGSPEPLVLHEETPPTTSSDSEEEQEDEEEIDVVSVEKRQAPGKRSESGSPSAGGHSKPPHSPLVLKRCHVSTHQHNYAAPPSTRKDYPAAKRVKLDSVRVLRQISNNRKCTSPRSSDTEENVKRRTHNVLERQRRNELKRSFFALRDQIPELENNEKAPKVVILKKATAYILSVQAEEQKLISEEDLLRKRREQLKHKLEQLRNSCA

Row | SMILES | remaining activity at 50 µM (Myc/Max binding to DNA; 50 uM test compound) | remaining activity at 100 µM (Myc/Max binding to DNA) | also measured
1 | CCc1ccc(Oc2c(-c3ccc(OCc4ccncc4)cc3O)n[nH]c2C(F)(F)F)cc1 [NUCC-0176250] | – | – | effective concentration (dose with the greatest selectivity, growth inhibition Myc WT vs KO) [1]: 50 µM; selectivity of growth inhibition for Myc WT over Myc KO cells ([1]; wild type vs Myc knockout rat fibroblasts): great selectivity; remaining activity at 200 µM (Myc/Max binding to DNA; 200 uM test compound, read-out: Bound DNA (%) (200uM)): 57%
2 | Cn1nc(-c2ccc(Nc3ccc4c(c3)OCO4)cc2O)cc1C(F)(F)F [compound 0200562] | 101% | 77% | –
3 | NC(=O)c1ccc(Nc2ccc(-c3cc(C(F)(F)F)[nH]n3)c(O)c2)cc1 [compound 0200563] | 101% | 92% | –
4 | Cn1nc(-c2ccc(Nc3ccc(C(N)=O)cc3)cc2O)cc1C(F)(F)F [compound 0200564] | 103% | 93% | –
5 | Oc1cc(Nc2ccccn2)ccc1-c1cc(C(F)(F)F)[nH]n1 [compound 0200565] | 112% | 112% | –
6 | Cn1nc(-c2ccc(Nc3ccccn3)cc2O)cc1C(F)(F)F [compound 0200566] | 109% | 118% | –
7 | CN1CCN(c2ccc(-c3cc(C(F)(F)F)[nH]n3)c(O)c2)CC1 [compound 0200567] | 117% | 115% | –
8 | CN1CCN(c2ccc(-c3cc(C(F)(F)F)n(C)n3)c(O)c2)CC1 [compound 0200568] | 109% | 93% | –
9 | Oc1cc(Nc2ccc(-n3ccnc3)cc2)ccc1-c1cc(C(F)(F)F)[nH]n1 [compound 0200569] | 89% | 91% | –
10 | Oc1cccc(OCc2ccc(Cl)cc2)c1-c1cc(C(F)(F)F)n[nH]1 [compound 0200570] | 85% | 83% | –
11 | Oc1ccc(OCc2ccc(Cl)cc2)cc1-c1cc(C(F)(F)F)n[nH]1 [compound 0200573] | – | 102% | –
12 | Oc1ccccc1-c1cc(C(F)(F)F)n[nH]1 [compound 0200574] | – | 107% | –
13 | FC(F)(F)c1cc2n(n1)-c1ccccc1Oc1cc(OCc3ccc(Cl)cc3)ccc1-2 [compound 0200577] | – | 100% | –
14 | NC(=O)c1cc(-c2ccc(Nc3ccc(Cl)cc3)cc2O)n[nH]1 [compound 0200677] | – | 102% | –
15 | N#Cc1cc(-c2ccc(Nc3ccc(Cl)cc3)cc2O)n[nH]1 [compound 0200678] | – | 104% | –
16 | Oc1cc(Nc2ccc(Cl)cc2)ccc1-c1cc(C(F)(F)F)[nH]n1 [compound 0200679] | – | – | Bound DNA (%) (50uM) (Myc/Max binding to DNA; 50 uM test compound): 79%; Bound DNA (%) (100uM) (Myc/Max binding to DNA): 38%
17 | CCc1ccc(Oc2c(-c3ccc(Nc4ccc(Cl)cc4)cc3O)n[nH]c2C(F)(F)F)cc1 [compound 0200680] | 96% | 40% | –
18 | CCc1ccc(Oc2c(-c3ccc(Oc4ccc(Cl)cc4)cc3O)n[nH]c2C(F)(F)F)cc1 [compound 0200681] | 90% | 8% | –
19 | CCc1ccc(Oc2c(-c3ccc(O)cc3O)nn(C)c2C(F)(F)F)cc1 [compound 0200682] | 101% | – | Bound DNA (%) (100uM) (Myc/Max binding to DNA): 95%

Row | SMILES | remaining activity at 50 µM (Myc/Max binding to DNA; 50 uM test compound) | remaining activity at 100 µM (Myc/Max binding to DNA) | also measured
20 | CCc1ccc(Oc2c(-c3ccccc3O)n[nH]c2C(F)(F)F)cc1 [compound 0200683] | 87% | 20% | –
21 | CCc1ccc(Oc2c(-c3ccccc3O)nn(C)c2C(F)(F)F)cc1 [compound 0200684] | 102% | 101% | –
22 | Oc1ccccc1C1=NNC(c2ccccc2)C1 (stereo not drawn) [compound 0200685] | 102% | 103% | –
23 | Cn1nc(C(F)(F)F)cc1-c1ccc(O)cn1 [compound 0200687] | 100% | 101% | –
24 | Cn1nc(C(F)(F)F)cc1-c1ccc(N)cn1 [compound 0200688] | 102% | 103% | –
25 | Cn1nc(C(F)(F)F)cc1-c1cnc(O)cn1 [compound 0200689] | 98% | 98% | –
26 | Cn1nc(C(F)(F)F)cc1-c1ccc(OCc2ccc(Cl)cc2)cn1 [compound 0200690] | 98% | 95% | –
27 | Cn1nc(C(F)(F)F)cc1-c1ccc(NCc2ccc(Cl)cc2)cn1 [compound 0200691] | 94% | 97% | –
28 | Cn1nc(C(F)(F)F)cc1-c1cnc(OCc2ccc(Cl)cc2)cn1 [compound 0200692] | 97% | 89% | –
29 | Oc1cc(Nc2ccc(Cl)c(Cl)c2)ccc1-c1cc(C(F)(F)F)[nH]n1 [compound 0200721] | 87% | 4% | –
30 | c1ccc(COc2ccccc2-c2nn[nH]c2-c2ccccc2)cc1 [compound 0200722] | – | 104% | –
31 | Cn1nc(C(F)(F)F)c(-c2cc(C(F)(F)F)cc(C(F)(F)F)c2)c1-c1ccc(O)cc1O [compound 0200723] | 88% | 36% | –
32 | Cn1nc(-c2ccc(O)cc2O)c(-c2cc(C(F)(F)F)cc(C(F)(F)F)c2)c1C(F)(F)F [compound 0200724] | – | 105% | –
33 | CCCc1c(C(F)(F)F)n[nH]c1-c1ccc(OCc2ccc(Cl)cc2)cc1O [compound 0200740] | 93% | 75% | –
34 | Cn1cc(C(F)(F)F)c(-c2ccc(OCc3ccc(Cl)cc3)cn2)n1 [compound 0200741] | – | 103% | –
35 | Cn1cc(C(F)(F)F)c(-c2ccc(NCc3ccc(Cl)cc3)cn2)n1 [compound 0200742] | – | 99% | –
36 | Cn1cc(-c2ccc(OCc3ccc(Cl)cc3)cc2N)c(C(F)(F)F)n1 [compound 0200746] | – | 101% | –
37 | Cn1cc(C(F)(F)F)c(-c2cnc(OCc3ccc(Cl)cc3)cn2)n1 [compound 0200747] | – | 105% | –

Further lines, with some results ahead:

Row | remaining activity at 50 µM (Myc/Max binding to DNA; 50 uM test compound) | remaining activity at 100 µM (Myc/Max binding to DNA) | SMILES | also measured
38 | 87% | 72% | N#Cc1cccc(-c2c(C(F)(F)F)n[nH]c2-c2cc(OCc3ccc(Cl)cc3)ccc2O)c1 [compound 0200571] | –
39 | 85% | 78% | Cc1ccc(-c2c(C(F)(F)F)n[nH]c2-c2cc(OCc3ccc(Cl)cc3)ccc2O)cc1 [compound 0200572] | –
40 | – | 13% | Oc1ccc(OCc2ccc(Cl)cc2)cc1-c1[nH]nc(C(F)(F)F)c1-c1ccc(F)cc1 [compound 0200575] | –
41 | – | 3% | Oc1ccc(OCc2ccc(Cl)cc2)cc1-c1[nH]nc(C(F)(F)F)c1-c1ccccc1Cl [compound 0200576] | –
42 | 98% | 87% | Oc1cc(OCc2ccc(Cl)cc2)ccc1-c1[nH]nc(C(F)(F)F)c1-c1ccc2c(c1)OCCO2 [compound 0200686] | –
43 | – | 98% | Oc1cc(OCc2ccc(Cl)cc2)ccc1-c1n[nH]c(C(F)(F)F)c1-c1ccc(C(F)(F)F)cc1 [compound 0200725] | –
44 | – | 92% | Cn1nc(C(F)(F)F)c(-c2ccc(C(F)(F)F)cc2)c1-c1ccc(OCc2ccc(Cl)cc2)cc1O [compound 0200726] | –
45 | – | 99% | Cn1nc(-c2ccc(OCc3ccc(Cl)cc3)cc2O)c(-c2ccc(C(F)(F)F)cc2)c1C(F)(F)F [compound 0200727] | –
46 | – | 89% | Oc1cc(OCc2ccc(Cl)cc2)ccc1-c1n[nH]c(C(F)(F)F)c1-c1ccc(C(F)(F)F)c(Cl)c1 [compound 0200728] | –
47 | 82% | 43% | Cn1nc(-c2ccc(OCc3ccc(Cl)cc3)cc2O)c(-c2ccc(C(F)(F)F)c(Cl)c2)c1C(F)(F)F [compound 0200729] | –
48 | 93% | 77% | Oc1cc(OCc2ccc(Cl)cc2)ccc1-c1n[nH]c(C(F)(F)F)c1-c1cccc(C(F)(F)F)c1 [compound 0200730] | –
49 | 77% | 62% | Cn1nc(-c2ccc(OCc3ccc(Cl)cc3)cc2O)c(-c2cccc(C(F)(F)F)c2)c1C(F)(F)F [compound 0200731] | –
50 | 89% | 46% | Oc1cc(OCc2ccc(Cl)cc2)ccc1-c1n[nH]c(C(F)(F)F)c1-c1ccc(Cl)c(C(F)(F)F)c1 [compound 0200732] | –
51 | – | 97% | Cn1nc(-c2ccc(OCc3ccc(Cl)cc3)cc2O)c(-c2ccc(Cl)c(C(F)(F)F)c2)c1C(F)(F)F [compound 0200733] | –
52 | – | 91% | Oc1cc(OCc2ccc(Cl)cc2)ccc1-c1n[nH]c(C(F)(F)F)c1-c1ccc(F)c(C(F)(F)F)c1 [compound 0200734] | –
53 | 84% | 60% | Cn1nc(C(F)(F)F)c(-c2ccc(F)c(C(F)(F)F)c2)c1-c1ccc(OCc2ccc(Cl)cc2)cc1O [compound 0200735] | –
54 | – | 86% | Cn1nc(-c2ccc(OCc3ccc(Cl)cc3)cc2O)c(-c2ccc(F)c(C(F)(F)F)c2)c1C(F)(F)F [compound 0200736] | –
55 | – | 76% | Oc1cc(OCc2ccc(Cl)cc2)ccc1-c1n[nH]c(C(F)(F)F)c1-c1ccc(C(F)(F)F)cc1Cl [compound 0200737] | –
56 | 91% | 18% | Cn1nc(C(F)(F)F)c(-c2ccc(C(F)(F)F)cc2Cl)c1-c1ccc(OCc2ccc(Cl)cc2)cc1O [compound 0200738] | –
57 | – | 78% | CCc1c(C(F)(F)F)n[nH]c1-c1ccc(OCc2ccc(Cl)cc2)cc1O [compound 0200739] | –
58 | – | 101% | Cn1cc(C(F)(F)F)c(-c2ccc(OCc3ccc(Cl)cc3)cc2F)n1 [compound 0200743] | –
59 | – | 62% | Cn1nc(C(F)(F)F)cc1-c1ccc(OCc2ccc(Cl)cc2)cc1Cl [compound 0200744] | –
60 | – | 105% | Cn1nc(C(F)(F)F)cc1-c1ccc(OCc2ccc(Cl)cc2)cc1N [compound 0200745] | –
